In patent US9062032B2, “Aminoalkyl-substituted N-thienylbenzamide derivative” (ASTELLAS PHARMA INC., priority 2011, dated 2015):
Where a name gives a salt, the structure may show the parent alone.

Experiments:
[1] = system: phosphate absorption from the intestinal tract; assay: Action of inhibiting increase in blood radioactivity in rat orally loaded with 32P phosphate (phosphate absorption inhibitory action); format: in vivo; details: male Wistar rats, 3 mg/kg oral, 32P phosphate load 5 min after dosing, serum radioactivity AUC0-30 min
Description: Action of Inhibiting Increase in Blood Radioactivity in Rat Orally Loaded with ^32P Phosphate (Phosphate Absorption Inhibitory Action)
Male Wistar rats (6- to 7-week old) were fasted for 24 hours and then used as experimental animals. The compound was suspended or dissolved with a solvent, and was used at a concentration of 0.6 mg/mL. The compound was forcibly orally administered at a dose of 3 mg/kg to the animals of a compound-administered group. Control-group animals were administered a solvent containing no compound at a dose of 5 mL/kg. After 5 minutes from administration of the compound or the solvent, a ^32P-containing phosphate solution (8.3 mM NaH2PO4) was orally administered thereto at a dose of 7.2 mL/kg. After 15 minutes and 30 minutes, the blood was taken from the orbital venous plexus and the serum was collected. Radioactivity in 0.1 mL of the serum was measured by a liquid scintillation counter. AUC0-30 min in calculated from the measured counts was considered as a phosphate absorption amount. The phosphate absorption inhibitory rate was determined from the AUC0-30 min value according to the following formula. Inhibition rate of phosphate absorption (%)=(1−phosphate absorption count of compound-administered group/phosphate absorption count of standard group)×100
Table 2 illustrates examples of the inhibition rate (Int. 2) of phosphate absorption in regard to some of the compounds of Formula (I).

rat NPT-IIb = biological target: T1, rat NPT-IIb (Rattus norvegicus, UniProt Q9JJ09); assay: Inhibitory action against 33P-phosphate uptake into rat NPT-IIb expression cell; format: cell-based; details: HEK293; compound concentration 1 μM; rat NPT-IIb stable expression 293 cells; read-out: Int. 1 (%): inhibition rate of the 33P-phosphate uptake into the rat NPT-IIb
T1 construct: rat NPT-IIb ORF was cloned into p3×FLAG-CMV-10 by PCR; expressed in transfected cells
T1 sequence (Q9JJ09 1-695): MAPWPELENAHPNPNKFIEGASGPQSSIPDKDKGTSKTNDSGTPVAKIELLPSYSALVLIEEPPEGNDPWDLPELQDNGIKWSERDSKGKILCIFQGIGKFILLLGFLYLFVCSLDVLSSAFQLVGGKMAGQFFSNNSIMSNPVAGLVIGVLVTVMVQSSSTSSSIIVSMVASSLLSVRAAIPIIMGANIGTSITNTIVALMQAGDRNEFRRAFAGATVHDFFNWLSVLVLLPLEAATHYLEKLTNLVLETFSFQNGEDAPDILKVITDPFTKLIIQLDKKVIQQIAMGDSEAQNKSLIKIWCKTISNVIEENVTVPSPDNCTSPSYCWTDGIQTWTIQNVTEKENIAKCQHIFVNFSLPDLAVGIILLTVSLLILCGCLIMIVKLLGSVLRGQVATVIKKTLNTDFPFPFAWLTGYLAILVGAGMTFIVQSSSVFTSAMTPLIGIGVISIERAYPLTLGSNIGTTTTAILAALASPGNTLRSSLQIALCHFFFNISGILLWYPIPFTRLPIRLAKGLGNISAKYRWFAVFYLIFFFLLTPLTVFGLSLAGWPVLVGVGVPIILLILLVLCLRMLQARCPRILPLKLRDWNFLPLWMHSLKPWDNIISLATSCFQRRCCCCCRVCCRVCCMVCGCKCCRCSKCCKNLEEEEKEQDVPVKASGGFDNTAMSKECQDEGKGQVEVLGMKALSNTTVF
Excerpt: Inhibitory Action Against ^33P-Phosphate Uptake into Rat NPT-IIb Expression Cell
(1) Preparation of Rat NPT-IIb Expression Cell
A rat small intestine cDNA library was used as a template, and rat NPT-IIb ORF was cloned into p3×FLAG-CMV-10 by PCR according to the prescribed method. Thereafter, 293 cells were transfected with the cloned rat NPT-IIb expression plasmid, thereby obtaining a rat NPT-IIb stable expression cell line by using G418.
(2) Evaluation System for Inhibition of Phosphate Uptake into Rat NPT-IIb Expression Cell
The rat NPT-IIb expression cells were seeded to a 96-well plate, followed by incubation overnight. Thereafter, the culture medium was removed, the plate was washed with buffer A (137 mM N-methyl-D-glucamine, 5.4 mM KCl, 2.8 mM CaCl2, 1.2 mM MgCl2, and 10 mM HEPES (adjusted to pH 7.4 using HCl)), and then buffer B (137 mM NaCl, 5.4 mM KCl, 2.8 mM CaCl2, 1.2 mM MgCl2, 0.1 mM KH2PO4, and 10 mM HEPES (adjusted to pH 7.4 using KOH)) was added thereto. Subsequently, a compound with a concentration of 10 times the evaluation concentration was prepared by dilution with the buffer B and added thereto. After the resultant was incubated in a CO2 incubator, the buffer B supplemented 50 μCi/mL of ^33P was added thereto, and then the resultant was incubated again in a CO2 incubator. After the reaction, the buffer was removed, the plate was washed with buffer C (137 mM NaCl, 10 mM Tris/HCl, pH 7.2). Thereafter, MicroScint-20 was added thereto, and ^33P uptake was measured using TopCount. An inhibition rate was calculated by the following formula. Inhibition rate (%)=(1−(^33P uptake of well treated with chemical)/(^33P uptake of DMSO-added well))×100
Table 1 illustrates examples of the inhibition rate (Int. 1) of the ^33P-phosphate uptake into the rat NPT-IIb in some of the compounds of the present invention at a concentration of drug efficacy evaluation of 1 μM. Here, Ex represents the number of example compounds described later (the same shall apply hereinafter).

Row | inhibition at 1 µM (rat NPT-IIb) | SMILES | Int. 2 (%): inhibition rate of phosphate absorption [1]
1 | 76% | CCC(CC)N(CCCN(C)C(=O)CCC(=O)O)Cc1cccc(C(=O)Nc2sc3c(c2C(=O)Nc2ccc(CCc4ccc(C(=O)O)cc4)cc2)CCCC3)c1.Cl [Example 66] | 59%
2 | 89% | CCC(CC)N(CCN(C)C(=O)CCC(C)(C)C(=O)O)Cc1cccc(C(=O)Nc2sc3c(c2C(=O)Nc2ccc(CCc4ccc(C(=O)O)cc4)cc2)CCCC3)c1 [Example 67, 4-(2-{4-[({2-[(3-{[{2-[(4-carboxy-4-methylpentanoyl)(methyl)amino]ethyl}(pentan-3-yl)amino]methyl}benzoyl)amino]-4,5,6,7-tetrahydro-1-benzothiophen-3-yl}carbonyl)amino]phenyl}ethyl)benzoic acid hydrochloride] | 
3 | 60% | CC(C)[C@@H](C)N(CCN(C)C(=O)CCC(=O)O)Cc1cccc(C(=O)Nc2sc3c(c2C(=O)Nc2ccc(CCc4ccc(C(=O)O)cc4)cc2)CCCC3)c1 [Example 70] | 
4 | 75% | CCC(CC)N(CCc1cccc(C(=O)Nc2sc3c(c2C(=O)Nc2ccc(CCc4ccc(C(=O)O)cc4)cc2)CCCC3)c1)CCN(C)C(=O)CCC(=O)O [Example 79] | 
5 | 70% | CCC(CC)N(CCN(C)C(=O)CCC(=O)O)Cc1cccc(C(=O)Nc2sc3c(c2C(=O)Nc2ccc(CCc4ccc(C(=O)O)cc4)nc2)CCCC3)c1 [Example 96] | 
6 | 71% | CCC(CC)N(CCN(C)C(=O)CCC(=O)O)Cc1cc(C(=O)Nc2sc3c(c2C(=O)Nc2ccc(CCc4ccc(C(=O)O)cc4)cc2)CCCC3)ccn1 [Example 99] | 
7 | 86% | CCC(CC)N(Cc1cccc(C(=O)Nc2sc3c(c2C(=O)Nc2ccc(CCc4ccc(C(=O)O)cc4)cc2)CCCC3)c1)C(=O)CCC(C)(C)C(=O)O [Example 109, 4-(2-{4-[({2-[(3-{[(4-carboxy-4-methylpentanoyl)(pentan-3-yl)amino]methyl}benzoyl)amino]-4,5,6,7-tetrahydro-1-benzothiophen-3-yl}carbonyl)amino]phenyl}ethyl)benzoic acid] | 
8 | 79% | CCC(CC)N(Cc1cccc(C(=O)Nc2sc3c(c2C(=O)Nc2ccc(CCc4ccc(C(=O)O)cc4)cc2)CCCC3)c1)C(=O)CC(C)(C)CC(=O)O [Example 121, 4-(2-{4-[({2-[(3-{[(4-carboxy-3,3-dimethylbutanoyl)(pentan-3-yl)amino]methyl}benzoyl)amino]-4,5,6,7-tetrahydro-1-benzothiophen-3-yl}carbonyl)amino]phenyl}ethyl)benzoic acid] | 
9 | 48% | CC(C)N(Cc1cccc(C(=O)Nc2sc3c(c2C(=O)Nc2ccc(CCc4ccc(C(=O)O)cc4)cc2)CCCC3)c1)[C@H]1CC[C@H](C(=O)O)CC1 [Example 172] | 

Further lines, the compound ahead of its results:

Row | SMILES | inhibition at 1 µM (rat NPT-IIb) | Int. 2 (%): inhibition rate of phosphate absorption [1]
10 | CCC(CC)N(CCN(C)C(=O)CCC(=O)O)Cc1cccc(C(=O)Nc2sc3c(c2C(=O)Nc2ccc(CCc4ccc(C(=O)O)cc4)cc2)CCCC3)c1.Cl [Example 2, 4-(2-{4-[({2-[(3-{[{2-[(3-carboxypropanoyl)(methyl)amino]ethyl}(pentan-3-yl)amino]methyl}benzoyl)amino]-4,5,6,7-tetrahydro-1-benzothiophen-3-yl}carbonyl)amino]phenyl}ethyl)benzoic acid hydrochloride] | 87% | >60%
11 | CCC(CC)N(CCN(C)C(=O)OCC(=O)O)Cc1cccc(C(=O)Nc2sc3c(c2C(=O)Nc2ccc(CCc4ccc(C(=O)O)cc4)cc2)CCCC3)c1.Cl [Example 4, 4-(2-{4-[({2-[(3-{[(2-{[(carboxymethoxy)carbonyl](methyl)amino}ethyl)(pentan-3-yl)amino]methyl}benzoyl)amino]-4,5,6,7-tetrahydro-1-benzothiophen-3-yl}carbonyl)amino]phenyl}ethyl)benzoic acid hydrochloride] | 77% | 53%
12 | CCN(CCN(Cc1cccc(C(=O)Nc2sc3c(c2C(=O)Nc2ccc(CCc4ccc(C(=O)O)cc4)cc2)CCCC3)c1)C1CC1)C(=O)CCC(=O)O [Example 31] | 87% | 
13 | CN(CCN(Cc1cccc(C(=O)Nc2sc3c(c2C(=O)Nc2ccc(CCc4ccc(C(=O)O)cc4)cc2)CCCC3)c1)C1CC1)C(=O)CCC(=O)O [Example 37] | 77% | 
14 | CC(C)N(CCN(C)C(=O)CCC(=O)O)Cc1cccc(C(=O)Nc2sc3c(c2C(=O)Nc2ccc(CCc4ccc(C(=O)O)cc4)cc2)CCCC3)c1 [Example 38] | 61% | 
15 | CCC(CC)N(CCN(C)C(=O)CCC(=O)O)Cc1cccc(C(=O)Nc2sc(C3CCCCC3)cc2C(=O)Nc2ccc(CCc3ccc(C(=O)O)cc3)cc2)c1 [Example 41] | 73% | 
16 | CCC(CC)N(CCN(C)C(=O)CCC(=O)O)Cc1cccc(C(=O)Nc2sc3c(c2C(=O)Nc2ccc(CCc4ccc(C(=O)O)cc4)cc2)CCCCCC3)c1 [Example 43] | 65% | 
17 | CCC(CC)N(CCN(C)C(=O)CCC(=O)O)Cc1cccc(C(=O)Nc2sc3c(c2C(=O)Nc2ccc(CCCc4ccc(C(=O)O)cc4)cc2)CCCC3)c1 [Example 53] | 85% | 
18 | CCC(CC)N(CCN(CCOC)C(=O)CCC(=O)O)Cc1cccc(C(=O)Nc2sc3c(c2C(=O)Nc2ccc(CCc4ccc(C(=O)O)cc4)cc2)CCCC3)c1.Cl [Example 60] | 86% | 56%
